Among the data in US20230416238A1, “N-[(1,3-BENZOXAZOL-2-YL)-HETEROCYCLE]AMIDE DERIVATIVES FOR THE TREATMENT AND PROPHYLAXIS OF HEPATITIS B VIRUS INFECTION” (Hoffmann-La Roche Inc., priority 2020, published 2023) are CC50 and IC50 values, retold here.

Broadly, the CC50 is the concentration giving 50% cytotoxicity. Read a low CC50 as greater toxicity to the cells. By IC50 is commonly meant the concentration needed to halve the response being measured.

Common to all, as to type: cell-based
Data set [1] can be described thus: Cytotoxicity in PHH natural infection assay (Cell Counting Kit-8). The note with it: HBV-infected primary human hepatocytes, CCK8. The method, then:
(§1) Detailed procedures regarding primary human hepatocyte (PHH) HBV natural infection assay are described as below. One tube of frozen PHH (10 million cells) is thawed in 37° C. water bath and then transferred to 20 mL of PHH thawing medium (Sigma, InVitroGRO HT Medium, Cat. S03319) with gently mixing. The cells were then centrifuged at […] for 5 min, the supernatant was discarded and the tube was refilled with 25 mL of PHH plating medium (Sigma, InVitroGRO CP Medium, Cat. S03317). The tube was shaken very gently to re-suspend all cells, and then 50 μL of cells were transferred to each well 384-well collagen I coated plate with appropriate liquid handling equipment, e.g. Integra VIAFLO384 or Agilent Bravo. The cells were then cultured for 24 hours in a cell incubator. For HBV infection, after PHH attachment on the culture plate, the plating medium was removed and replenished with PHH culture medium containing HBV virus. The PHH culture medium was prepared with Dulbecco's Modified Eagle Medium (DMEM)/F12 (1:1 in volume ratio) containing 10% fetal bovine serum (Gibco, Cat. 10099141), 5 ng/mL human epidermal growth factor (Gibco, Cat. PHG0311L), 20 ng/mL dexamethasone (Sigma, Cat. D4902-100 mg), 250 ng/mL human recombinant insulin (Gibco, Cat. 41400045) and 100 U/mL penicillin. HBV virus at 200 genome equivalent (GE) per cell with 4% PEG8000 (Sigma, Cat. P1458) containing culture medium were added to the PHH culture medium for infection. The cells were then cultured for 24 hours in cell incubator. Then the cell culture supernatant was removed. The HBV-infected PHH were cultured with sandwich culture method with MEI culture medium containing 1% DMSO and 0.25 mg/mL matrix gel for 72 hours. The supernatant was then refreshed with PHH culture medium containing different concentrations of testing compounds for two times with 72-hour interval. At the end of treatment, the supernatant was collected for viral markers measurements, including HBsAg, HBeAg, HBV DNA and cytotoxicity. HBsAg and HBeAg were detected using alphalisa method using their specific antibodies. For HBV DNA detection, HBV DNA Quantitative Fluorescence Diagnostic Kit (Sansure Biotech Inc.) was used following the manufacture's protocol. Cytotoxicity was determined using Cell Counting Kit-8 (CCK8, Dojindo Molecular Technologies, Inc.).

The subject of data set [2] is HBsAg. Nature of the data set: PHH HBV natural infection assay, HBsAg (alphalisa). The conditions noted are these: Hepatitis B virus, Hepatocyte, read-out: HBsAg IC50. How it is done: as §1
(§2) The compounds of the present invention were tested for their capacity to inhibit HBsAg and HBeAg as described herein.
For orientation: Alpha assays give light when donor and acceptor beads are brought close together.

In data set [3] the test system is HBeAg. Nature of the data set: PHH HBV natural infection assay, HBeAg (alphalisa). The note with it: Hepatitis B virus, Hepatocyte, read-out: HBeAg IC50. How it is done: as §1, §2

In data set [1], `CCOC(=O)NC1CC2(C1)CN(c1nc3cc(Cl)ccc3o1)C2` [Example 21, Ethyl N-[2-(5-chloro-1,3-benzoxazol-2-yl)-2-azaspiro[3.3]heptan-6-yl]carbamate] yielded a CC50 at 144 h of over 100 µM. Also, the IC50 is 7.15 µM in data set [2] and 5.24 µM in data set [3].

In the case of `CC(C)COC(=O)NC1CC2(C1)CN(c1nc3cc(Cl)ccc3o1)C2` [Example 22, Isobutyl N-[2-(5-chloro-1,3-benzoxazol-2-yl)-2-azaspiro[3.3]heptan-6-yl]carbamate], the CC50 at 144 h in data set [1] amounted to 82.7 µM. For the same compound, the IC50 in data set [2] is 5.87 µM; in data set [3] it was 4.82 µM.

In data set [1], `CN(C)C(=O)NC1CC2(C1)CN(c1nc3cc(Cl)ccc3o1)C2` [Example 23, 3-[2-(5-Chloro-1,3-benzoxazol-2-yl)-2-azaspiro[3.3]heptan-6-yl]-1,1-dimethyl-urea] came in with a CC50 at 144 h of over 100 µM. The IC50 in data set [2] worked out at 7.63 µM; in data set [3] it was 6.62 µM.

Regarding `CCNC(=O)NC1CC2(C1)CN(c1nc3cc(Cl)ccc3o1)C2` [Example 24, 1-[2-(5-Chloro-1,3-benzoxazol-2-yl)-2-azaspiro[3.3]heptan-6-yl]-3-ethyl-urea], in data set [1], the CC50 at 144 h is over 100 µM. Besides, the IC50 in data set [2] is 7.29 µM; in data set [3] it was 8.31 µM.

On to `O=C(CCC(F)(F)F)NC1CC2(C1)CN(c1nc3cc(Cl)ccc3o1)C2` [Example 25, N-[2-(5-chloro-1,3-benzoxazol-2-yl)-2-azaspiro[3.3]heptan-6-yl]-4,4,4-trifluoro-butanamide], for which the CC50 at 144 h in data set [1] is over 100 µM. In addition, the IC50 in data set [2] turned out to be 9.8 µM; in data set [3], 10.3 µM.

`O=C(NC1CC2(C1)CN(c1nc3cc(Cl)ccc3o1)C2)C1CCS(=O)(=O)C1` (stereo not drawn) [Example 26, N-[2-(5-chloro-1,3-benzoxazol-2-yl)-2-azaspiro[3.3]heptan-6-yl]-1,1-dioxo-thiolane-3-carboxamide] registered a CC50 at 144 h in data set [1] of over 100 µM. Also, the IC50 in data set [2] worked out at 8.76 µM; in data set [3], 4.65 µM.

In data set [1], `CC(C)(C)C(=O)NC1CC2(C1)CN(c1nc3cc(Cl)ccc3o1)C2` [Example 27, N-[2-(5-chloro-1,3-benzoxazol-2-yl)-2-azaspiro[3.3]heptan-6-yl]-2,2-dimethyl-propanamide] came in with a CC50 at 144 h of over 100 µM. Further, the IC50 in data set [2] was determined as 5.67 µM; in data set [3], 3.69 µM.

Compound `CC(C)CC(=O)NC1CC2(C1)CN(c1nc3cc(Cl)ccc3o1)C2` [Example 28, N-[2-(5-chloro-1,3-benzoxazol-2-yl)-2-azaspiro[3.3]heptan-6-yl]-3-methyl-butanamide] came in with a cytotoxic concentration (CC50) at 144 h in data set [1] of 76.6 µM. Moreover, the figures for the IC50 in data set [2] and in data set [3] were 3.31 µM and 2.18 µM, respectively.

In the case of `CC(C)(O)C(=O)NC1CC2(C1)CN(c1nc3cc(Cl)ccc3o1)C2` [Example 29, N-[2-(5-chloro-1,3-benzoxazol-2-yl)-2-azaspiro[3.3]heptan-6-yl]-2-hydroxy-2-methyl-propanamide], the CC50 at 144 h in data set [1] was over 100 µM. Further, the IC50 in data set [2] was found to be 7.13 µM; in data set [3], 7.37 µM.

The compound `O=C(NC1CC2(C1)CN(c1nc3cc(Cl)ccc3o1)C2)C1CC1(F)F` (stereo not drawn) [Example 30, N-[2-(5-chloro-1,3-benzoxazol-2-yl)-2-azaspiro[3.3]heptan-6-yl]-2,2-difluoro-cyclopropanecarboxamide] returned a CC50 at 144 h in data set [1] of over 100 µM. In addition, the values for the IC50 in data set [2] and in data set [3] were 3.5 µM and 2.7 µM, respectively.

In the case of `O=C(NC1CC2(C1)CN(c1nc3cc(Cl)ccc3o1)C2)C1CC(F)(F)C1` [Example 31, N-[2-(5-chloro-1,3-benzoxazol-2-yl)-2-azaspiro[3.3]heptan-6-yl]-3,3-difluoro-cyclobutanecarboxamide], the CC50 at 144 h in data set [1] was over 100 µM. Moreover, the IC50 in data set [2] was determined as 6.98 µM; in data set [3], 6.22 µM.

`O=C(NC1CC2(C1)CN(c1nc3cc(Cl)ccc3o1)C2)C1CCC(F)(F)C1` (stereo not drawn) [Example 32, N-[2-(5-chloro-1,3-benzoxazol-2-yl)-2-azaspiro[3.3]heptan-6-yl]-3,3-difluoro-cyclopentanecarboxamide]: the CC50 at 144 h in data set [1] is over 100 µM. In addition, the IC50 in data set [2] turned out to be 4.25 µM; in data set [3] it was 10.3 µM.

In the case of `CC1(C(=O)NC2CC3(C2)CN(c2nc4cc(Cl)ccc4o2)C3)CCS(=O)(=O)C1` (stereo not drawn) [Example 33, N-[2-(5-chloro-1,3-benzoxazol-2-yl)-2-azaspiro[3.3]heptan-6-yl]-3-methyl-1,1-dioxo-thiolane-3-carboxamide], the CC50 at 144 h in data set [1] is over 100 µM. The IC50 worked out at 4.51 µM in data set [2] and 4.4 µM in data set [3].

Consider `O=C(NC1CC2(C1)CN(c1nc3cc(Cl)ccc3o1)C2)C1CS(=O)(=O)C1` [Example 34, N-[2-(5-chloro-1,3-benzoxazol-2-yl)-2-azaspiro[3.3]heptan-6-yl]-1,1-dioxo-thietane-3-carboxamide], for which the CC50 at 144 h in data set [1] is over 100 µM. Moreover, the IC50 in data set [2] stood at 5.5 µM; in data set [3], 4.48 µM.

`O=C(CC1CS(=O)(=O)C1)NC1CC2(C1)CN(c1nc3cc(Cl)ccc3o1)C2` (stereo not drawn) [Example 35, N-[2-(5-chloro-1,3-benzoxazol-2-yl)-2-azaspiro[3.3]heptan-6-yl]-2-(1,1-dioxothietan-3-yl)acetamide] showed a CC50 at 144 h in data set [1] of over 100 µM. In addition, the IC50 in data set [2] was 2.36 µM; in data set [3] it was 2.22 µM.

Compound `O=C(NC1CC2(C1)CN(c1nc3cc(Cl)ccc3o1)C2)C1CCS(=O)(=O)CC1` [Example 36, N-[2-(5-chloro-1,3-benzoxazol-2-yl)-2-azaspiro[3.3]heptan-6-yl]-1,1-dioxo-thiane-4-carboxamide] gave a CC50 at 144 h in data set [1] of over 100 µM. The IC50 in data set [2] was found to be 8.28 µM; in data set [3], 4.03 µM.

`O=C(NC1CC2(C1)CN(c1nc3ccc(Cl)cc3o1)C2)c1ccnc(S(=O)(=O)C2CC2)c1` [Example 37, N-[2-(6-chloro-1,3-benzoxazol-2-yl)-2-azaspiro[3.3]heptan-6-yl]-2-cyclopropylsulfonyl-pyridine-4-carboxamide] registered a CC50 at 144 h in data set [1] of over 10 µM. For the same compound, the IC50 in data set [2] worked out at 7.75 µM; in data set [3], 6.26 µM.

In data set [1], `COc1cc(C(=O)NC2CC3(C2)CN(c2nc4ccc(Cl)cc4o2)C3)ccn1` [Example 38, N-[2-(6-chloro-1,3-benzoxazol-2-yl)-2-azaspiro[3.3]heptan-6-yl]-2-methoxy-pyridine-4-carboxamide] gave a CC50 at 144 h of over 10 µM. Besides, the IC50 in data set [2] is 6.89 µM; in data set [3], 5.73 µM.

In data set [1], `COCCOc1cc(C(=O)NC2CC3(C2)CN(c2nc4cc(Cl)ccc4o2)C3)ccn1` [Example 39, N-[2-(5-chloro-1,3-benzoxazol-2-yl)-2-azaspiro[3.3]heptan-6-yl]-2-(2-methoxyethoxy)pyridine-4-carboxamide] registered a CC50 at 144 h of over 100 µM. In addition, the IC50 in data set [2] came to 6.47 µM; in data set [3] it was 4.37 µM.

The compound `CS(=N)(=O)c1ccc(C(=O)NC2CC3(C2)CN(c2nc4cc(Cl)ccc4o2)C3)o1` (stereo not drawn) [Example 40, N-[2-(5-chloro-1,3-benzoxazol-2-yl)-2-azaspiro[3.3]heptan-6-yl]-5-(methylsulfonimidoyl)furan-2-carboxamide] came in with a CC50 at 144 h in data set [1] of over 100 µM. Moreover, the IC50 in data set [2] is 6.13 µM; in data set [3] it was 4.78 µM.

In data set [1], `CC(C)Oc1cc(C(=O)NC2CC3(C2)CN(c2nc4ccc(Cl)cc4o2)C3)ccn1` [Example 41, N-[2-(6-chloro-1,3-benzoxazol-2-yl)-2-azaspiro[3.3]heptan-6-yl]-2-isopropoxy-pyridine-4-carboxamide] came in with a CC50 at 144 h of over 10 µM. Also, the results for the IC50 in data set [2] and in data set [3] were 5.87 µM and 3.81 µM, respectively.

Turning to `O=C(NC1CC2(C1)CN(c1nc3cc(Cl)ccc3o1)C2)c1ccc(C(F)(F)F)o1` [Example 42, N-[2-(5-chloro-1,3-benzoxazol-2-yl)-2-azaspiro[3.3]heptan-6-yl]-5-(trifluoromethyl)furan-2-carboxamide], the CC50 at 144 h in data set [1] was over 100 µM. Further, the IC50 in data set [2] was 5.66 µM; in data set [3] it was 4.67 µM.

Turning to `COc1cc(C(=O)NC2CC3(C2)CN(c2nc4cc(Cl)ccc4o2)C3)ccn1` [Example 43, N-[2-(5-chloro-1,3-benzoxazol-2-yl)-2-azaspiro[3.3]heptan-6-yl]-2-methoxy-pyridine-4-carboxamide], half-maximal cytotoxicity in data set [1] (CC50 at 144 h) was put at 84.8 µM. Moreover, the IC50 in data set [2] was determined as 1.76 µM; in data set [3], 1.01 µM.
